Source: US8691864B2, “Agents useful for reducing amyloid precursor protein and treating dementia and methods of use thereof” (priority 2000, dated 2014)

Columns and labels:
[1] = tested on: ERK½; test: phosphorylated ERK in SH-SY5Y cells, western blot; type: cell-based, human; settings: 5 μM, 0.5-4 hours
Protocol: Fifteen μg of protein from each sample was mixed with the appropriate volume of 5× Laemmli buffer and boiled for 5 min at 100° C. The samples were loaded onto a 10% NuPAGE Bis-Tris gel in 1×NuPAGE MOPS SDS running buffer (NOVEX, San Diego, Calif.) and the proteins separated at 200 V for 45 min. The gels then were transferred onto nitrocellulose at 25 V for 1.5 h. The blots were blocked with 5% non-fat dry milk in 10 mM Tris, pH 8.0 containing 150 mM NaCl for 1 h and washed twice for 15 min in large volumes of TBST (10 mM Tris, pH 8.0, 150 mM NaCl and 0.05% Tween 20). […] Three final TBST washes of 20 min duration each were performed before the samples were detected by chemiluminescence and exposed to film, as per the manufacturer's instructions (Amersham Life Science Inc., Arlington Heights, Ill.). […] Densitometric quantification of blots was undertaken by using a […] and NIH-IMAGE (version 4.1).
SH-SY5Y cells were incubated with 5 μM (+)-phenserine or (−) phenserine for 0, 0.5, 1, 2 and 4 hours to determine the effect of the drug on βAPP protein levels. Western blots of cell lysates containing 15 μg of total protein per lane were analyzed. […] Stress activated transcription kinases, p38 and JNK, were not detected in the samples. […]

[2] = tested on: βAPP; test: βAPP protein levels in SH-SY5Y cell lysates, western blot; type: cell-based, human; settings: 5 μM, 0.5, 1, 2 and 4 hours
Protocol: (§1) SK-N-SH neuroblastoma cells were cultured on 60 mm dishes at a concentration of 3×10^6 cells, and SH-SY-5Y neuroblastoma and U373 astrocytorna cell lines were plated in 100 mm dishes at a concentration of 3×10^5 cells. The cells were allowed to grow in complete medium ([…], 2 mM glutamine in DMEM) for 3 to 4 days until they reached 70% confluence. To start the experiment, spent medium was removed and replaced with fresh medium (SKNSH—4 ml of DMEM+0.5% FBS; U373—5 ml of DMEM+2.5% FBS) containing 0, 5, or 50 μM phenserine. The cells were incubated at 37° C., 5% CO2 for the specific times indicated. Different media and sera were purchased from Life Technologies (Gaithersberg, Md.).
At each time point, the spent medium was collected and stored at −70° C. for later analysis of secretory βAPP levels. The cells were washed twice with PBS, pH 7.4 and incubated on ice for 15 min for lysis with 100 μL of lysis buffer (20 mM HEPES, 2 mM EGTA, 50 mM (β-glycophosphate, 1 mM sodium orthovanadate, 1% Triton X-100, 10% glycerol) containing appropriate protease inhibitors (2 mM PMSF, 100 μg/mL aprotinin, 25 μM leupeptin and 20 μg/mL soybean trypsin inhibitor). Each lysate was microcentrifuged for 15 min at 14 000 rpm. Protein levels of the supernatant were analyzed by the Bradford protein assay (BioRad, Melville, N.Y.). […]

[3] = tested on: βAPP; test: βAPP levels in SK-N-SH cells (conditioned media and cell lysates), western blot; type: cell-based, human
Protocol: as §1
At each time point, the spent medium was collected and stored at −70° C. for later analysis of secretory βAPP levels. The cells were washed twice with PBS, pH 7.4 and incubated on ice for 15 min for lysis with 100 μL of lysis buffer (20 mM HEPES, 2 mM EGTA, 50 mM (β-glycophosphate, 1 mM sodium orthovanadate, 1% Triton X-100, 10% glycerol) containing appropriate protease inhibitors (2 mM PMSF, 100 μg/mL aprotinin, 25 μM leupeptin and 20 μg/mL soybean trypsin inhibitor). Each lysate was microcentrifuged for 15 min at 14 000 rpm. Protein levels of the supernatant were analyzed by the Bradford protein assay (BioRad, Melville, N.Y.).
Fifteen μg of protein from each sample was mixed with the appropriate volume of 5× Laemmli buffer and boiled for 5 min at 100° C. The samples were loaded onto a 10% NuPAGE Bis-Tris gel in 1×NuPAGE MOPS SDS running buffer (NOVEX, San Diego, Calif.) and the proteins separated at 200 V for 45 min. The gels then were transferred onto nitrocellulose at 25 V for 1.5 h. The blots were blocked with 5% non-fat dry milk in 10 mM Tris, pH 8.0 containing 150 mM NaCl for 1 h and washed twice for 15 min in large volumes of TBST (10 mM Tris, pH 8.0, 150 mM NaCl and 0.05% Tween 20). Each blot was probed for 2 h with either 22C11 anti-βAPP-terminal antibody (Boehringer Mannheim, Indianapolis, Ind.), diluted to a concentration of 2.5 μg/mL or anti-activated ERK antibody (Promega, Madison, Wis.), diluted to a concentration of 25 ng/mL. The blots were washed twice for 15 min in TBST and placed in secondary antibody, anti-mouse IgG- or anti-rabbit IgG conjugated to horse radish peroxidase (Sigma, St. Louis, Mo.), for 30 min. Three final TBST washes of 20 min duration each were performed before the samples were detected by chemiluminescence and exposed to film, as per the manufacturer's instructions (Amersham Life Science Inc., Arlington Heights, Ill.). Additionally, all blots also were stained with Ponceau S (Sigma, St. Louis, Mo.) to determine equivalent loading of samples. Densitometric quantification of blots was undertaken by using a […] and NIH-IMAGE (version 4.1).
Western blots of conditioned media (FIG. 4A) and cell lysates (FIG. 4B) were probed; with a N-terminal directed anti-βAPP antibody.
3×10^6 SK-N-SH cells were plated on 60 mm dishes with DMEM containing 10% FBS. After 36 hours, cells were incubated with low serum medium for 1 hour. Thereafter, the medium was replaced with fresh low serum medium (0.5% FBS). […] The cells were incubated with and without phenserine for 16 hours. At the stated time (4, 8 and 16 hrs), 200 μl of medium was transferred from each dish for assessment of extracellular APP levels. At the end of experiments (16 hrs), the cells were lysed and collected for assessment of intracellular APP levels.
15 μL of medium samples and 15 μg of total protein from each lysed samples were loaded onto 10% trys-glycine gels, and the protein was separated at 150 V for 90 min. The gels were transferred onto polyvinylidene difluoride paper and probed with an affinity-purified anti-APP antibody (22C11), which recognizes the ectodomain of APP (residues 66-81). The APP signals were detected by chemiluminescence and exposed to film. The quantitation of the signals was determined by using a CD camera and NIH-IMAGE (version 4.0). […]

[4] = in vivo toxicity, i.p. administration to rodents; settings: 20 mg/kg
Protocol: This persisted for an hour and is related to central cholinergic overdrive. […] Animals were incapacitated at 20 mg/kg (N=3 per dose group), and 2 were killed when moribund.

[5] = tested on: cholinesterase; settings: Greig et al., 1995; Brossi et al., 1996; cited from earlier work
[6] = tested on: cholinesterase; type: biochemical
[7] = tested on: SK-N-SH cells; test: LDH assay / cell number and viability, SK-N-SH cells; type: cell-based, human; settings: for toxicity by cell number and viability (LDH measurement): cymserine and analogs
From the text: Measurement of released lactate dehydrogenase (LDH) in the conditioned medium was undertaken as a marker of cell viability and integrity, as described previously (Lahiri et al., 1997 and 1998).
This was not associated with cellular dysfunction, as determined by measurement of LDH levels versus untreated controls (FIG. 4C).

[8] = tested on: total Aβ peptide; test: total Aβ ELISA in SK-N-SH conditioned medium; type: cell-based, human; settings: for Aβ peptide levels: cymserine and analogs
Protocol: Total Aβ peptide levels in SH-SY-SY and SK-N-SH cultured samples were assayed by a sensitive ELISA (Suzuki et al., 1994). For total Aβ measurements in conditioned medium, the rabbit polyclonal antibody #3160 (1-40 residues of Aβ) was used as a capture antibody for all species of Aβ peptide (Aβ1-40 and Aβ1-42) while monoclonal antibody 4G8 (17-25 residues of Aβ) was used to detect Aβ peptide levels, and the values were expressed as the mean of six independent assays.
Likewise, (+)-phenserine reduced BAPP protein levels and total Aβ peptide levels at 16 hours (FIG. 5).

[9] = tested on: Aβ1-40; test: Aβ1-40 levels in cerebral cortex of transgenic mice, ELISA; type: in vivo; settings: formic acid extraction, 3 weeks daily
Protocol: (§2) Greater reductions could be achieved, but, as previously reported, doses of >5 mg/kg produce cholinergic side effects for the (−)-enantiomer but not for the (+)-enantiomer.
(§3) Samples of cerebral cortex from the transgenic mice then were analyzed for β amyloid peptide (Aβ) levels. Specifically, Aβ1-40 and Aβ1-42 levels, following formic acid extraction, were determined by ELISA assay (Suzuki et al., 1994).

[10] = tested on: Aβ1-42; test: Aβ1-42 levels in cerebral cortex of transgenic mice, ELISA; type: in vivo; settings: formic acid extraction, 3 weeks daily
Protocol: as §2, §3

[11] = tested on: secreted APP; test: ELISA for secreted APP in SHSY5Y cells; type: cell-based, human; settings: 16 hours
[12] = tested on: SH-SY-5Y Cells; test: MTS toxicity assay in SHSY5Y cells; type: cell-based, human

Structure (SMILES)	anticholinesterase activity / action [6]	βAPP protein levels ([3]; cymserine and analogs (FIG. 7))	toxicity by cell number and viability (LDH measurement) ([7]; SK-N-SH)	Aβ peptide levels [8]	APP Secretion by SH-SY-5Y Cells ([11]; Dose 2 uM)	APP Secretion by SH-SY-5Y Cells ([11]; Dose 6 uM)	APP Secretion by SH-SY-5Y Cells ([11]; Dose 20 uM)	APP Toxicity SH-SY-5Y Cells (MTS assay) ([12]; Dose 2 uM)	APP Toxicity SH-SY-5Y Cells (MTS assay) ([12]; Dose 6 uM)	APP Toxicity SH-SY-5Y Cells (MTS assay) ([12]; Dose 20 uM)	also measured
CN1CCC2(C)c3cc(OC(=O)Nc4ccccc4)ccc3N(C)C12 (single isomer, unassigned; (+)) [(+)-phenserine, (+)-Phenserine]	devoid of anticholinesterase activity	–	–	–	–	–	–	–	–	–	ERK½ (phosphorylated) detection [1]: peaked at the 30 minute to 1 hour period; βAPP levels in the cell lysates [2]: slowly decreased at each time point; BAPP protein levels ([3]; 16 hours (FIG. 5)): reduced; clinical signs [4]: without clinical symptoms and appeared normal; anti-cholinesterase activity [5]: no anti-cholinesterase activity; toxicity by cell number and viability (LDH levels) ([7]; SK-N-SH, 16 hours (FIG. 5)): not associated with toxicity; total Aβ peptide levels ([8]; 16 hours (FIG. 5)): reduced
CC(C)c1ccc(NC(=O)Oc2ccc3c(c2)[C@]2(C)CCNC2N3)cc1 (single isomer, unassigned; (-)) [(−)-N^1,N^8-bisnorcymserine]	–	reduced βAPP protein levels	no toxicity	also reduced	–	–	–	–	–	–	toxicity at higher concentrations [7]: toxic
CC(C)c1ccc(NC(=O)Oc2ccc3c(c2)[C@@]2(C)CCN(C)[C@H]2N3C)cc1 [(+)-cymserine, (+)-Cymserine]	devoid of it	reduced βAPP protein levels	no toxicity	also reduced	–	–	–	–	–	–	–
CC(C)c1ccc(NC(=O)Oc2ccc3c(c2)[C@]2(C)CCN(CCc4ccccc4)[C@@H]2N3C)cc1 [(−)-N^1-phenethylcymserine]	–	reduced βAPP protein levels	no toxicity	also reduced	–	–	–	–	–	–	reduction of Aβ1-40 levels [9]: 54%; toxicity at higher concentrations [7]: toxic; reduction of Aβ1-42 levels [10]: 47%
CC(C)c1ccc(NC(=O)Oc2ccc3c(c2)[C@]2(C)CCN(C)[C@@H]2N3C)cc1 [(−)-cymserine]	possessed anticholinesterase action	reduced βAPP protein levels	no toxicity	also reduced	–	–	–	–	–	–	–
CNC(=O)Oc1ccc2c(c1)[C@]1(C)CCN(C)[C@@H]1N2C [(−)-physostigmine, reference compound]	–	–	–	–	–	–	–	–	–	–	βAPP protein levels ([3]; 50 μM): no reduction or change; total Aβ peptide levels ([8]; 50 μM): no reduction or change
COc1ccc2[nH]cc(CCN)c2c1.Cl [MES 9321]	–	–	–	–	97.95 % vehicle control	98.1 % vehicle control	100.5 % vehicle control	99.9 % vehicle control	101.15 % vehicle control	99.45 % vehicle control	–
COc1ccc2c(c1)C(C)(c1ccccc1)C(=O)N2C (stereo not shown) [MES 9324]	–	–	–	–	110.3 % vehicle control	95.9 % vehicle control	99.95 % vehicle control	102.15 % vehicle control	100.4 % vehicle control	98.65 % vehicle control	–
Br.CC1=C(c2ccc(O)cc2)CN2CCC[C@H]2C1.O [MES 9330]	–	–	–	–	99.6 % vehicle control	101.5 % vehicle control	110.65 % vehicle control	99.05 % vehicle control	98.45 % vehicle control	97.95 % vehicle control	–
Clc1ccc(C2CC3CCC2N3)cn1 (stereo not shown) [MES 9331]	–	–	–	–	95.45 % vehicle control	102.1 % vehicle control	106.7 % vehicle control	100.45 % vehicle control	99.99 % vehicle control	98.95 % vehicle control	–
